In brackets after ≈: the same amount, converted by molar mass.

Results on one compound are retold here after patent publication US3970643A, “5"-Amino-3',5"-dideoxybutirosin A and derivatives” (Parke, Davis & Company, priority 1975, dated 1976).

Assay in all cases: MIC, microtitration in TSB, in vitro antibacterial screening
What all share (assay type): cell-based

The test system of assay [1] is Pseudo. aerug. 130. The conditions noted are these: Pseudomonas aeruginosa, Pseudo. aerug. 130, gentamicin resistant. The text has this: (§1) They show activity when tested by well-recognized in vitro anti-bacterial screening procedures.
^c Gentamicin resistant

Assay [2] deals with Esch. coli JR-76.2. As to conditions: Escherichia coli, JR76.2.
Text: as §1
(§2) ^b Butirosin and Gentamicin resistant

The subject of assay [3] is Pseudo. aerug. G-76. The conditions noted are these: Pseudomonas aeruginosa, Pseudo. aerug. G-76, butirosin and gentamicin resistant.
Text: as §1, §2

For assay [4], the system named is Pseudo. aerug. No. 28. The conditions noted are these: Pseudomonas aeruginosa.
Text: as §1

The subject of assay [5] is Pseudo. aerug. Aquilar. The conditions noted are these: Pseudomonas aeruginosa, butirosin resistant.
Text: as §1

Assay [6] deals with Pseudo. aerug. 58.38. As to conditions: Pseudomonas aeruginosa.
Text: as §1

The test system of assay [7] is Staph auretis S18713. The conditions noted are these: Staph auretis S18713, butirosin resistant.
Text: as §1

Assay [8] has as its system Klebs. pneumoniae MGH-1. As to conditions: Klebsiella pneumoniae, MGH1.
Text: as §1

The test system of assay [9] is Entero. cloacae IMM-50. The conditions noted are these: Enterobacter cloacae, IMM50.
Text: as §1

The test system of assay [10] is Serr. marcescens IMM-5. The conditions noted are these: Serratia marcescens, IMM5.
Text: as §1

In assay [11] the test system is Pseudo. aerug. 733. As to conditions: Pseudomonas aeruginosa.
Text: as §1

The test system of assay [12] is Pseudo. aerug. UI-18. As to conditions: Pseudomonas aeruginosa.
Text: as §1

Assay [13] concerns Pseudo. aerug. LA-3399. As to conditions: Pseudomonas aeruginosa.
Text: as §1

Assay [14] has as its system Pseudo. aerug. 74C-1. The conditions noted are these: Pseudomonas aeruginosa.
Text: as §1

For assay [15], the system named is Pseudo. aerug. VAD12-7-7. As to conditions: Pseudomonas aeruginosa.
Text: as §1

By MIC is commonly meant the smallest concentration in the dilution series that meets the test's criterion for growth inhibition. As to `NCC[C@H](O)C(=O)N[C@@H]1C[C@H](N)[C@@H](O[C@H]2O[C@H](CN)[C@@H](O)C[C@H]2N)[C@H](O[C@@H]2O[C@H](CN)[C@H](O)[C@H]2O)[C@H]1O` [I carbonate, 5"-amino-3',5"-dideoxybutirosin A], the MIC stood at 6.3 µg/mL (≈ 11.7 µM) in assay [1]; 25 µg/mL (≈ 46.4 µM) in [2]; 12.5 µg/mL (≈ 23.2 µM) in assay [3]; 1.6 µg/mL (≈ 2.97 µM) in assay [4]; 12.5 µg/mL (≈ 23.2 µM) in assay [5]; 3.1 µg/mL (≈ 5.76 µM) in assay [6]. The MIC in assay [7] is 3.1 µg/mL (≈ 5.76 µM); in assay [8] it was 6.3 µg/mL (≈ 11.7 µM); in assay [9], 6.3 µg/mL (≈ 11.7 µM); in assay [10], 25 µg/mL (≈ 46.4 µM); in assay [11], 3.1 µg/mL (≈ 5.76 µM); in [12] it was 3.1 µg/mL (≈ 5.76 µM). The MIC in [13] was 12.5 µg/mL (≈ 23.2 µM); in assay [14], 3.1 µg/mL (≈ 5.76 µM); in assay [15], 3.1 µg/mL (≈ 5.76 µM).
